PubChem BioAssay (NCI)
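In this assay, cells in 96-well plates receive the compound at five concentrations for 48 hours. Endpoints are linearly interpolated between the surrounding concentrations. Here, GI50 denotes the concentration required for 50% inhibition of growth. Definition used: TGI = concentration required for complete inhibition of growth.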

Tests used:
Assay in all cases: inhibition of tumour cell growth, NCI panel, 48 h
OVCAR-8 ovarian = tested on: OVCAR-8 ovarian
K-562 leukemia = tested on: K-562 leukemia
HOP-92 NSCLC = tested on: HOP-92 NSCLC
PC-3 prostate = tested on: PC-3 prostate
HOP-62 NSCLC = tested on: HOP-62 NSCLC
HS 578T breast = tested on: HS 578T breast
T-47D breast = tested on: T-47D breast
UACC-257 melanoma = tested on: UACC-257 melanoma
SF-295 CNS = tested on: SF-295 CNS
OVCAR-5 ovarian = tested on: OVCAR-5 ovarian

SMILES | TGI (OVCAR-8 ovarian) | TGI (K-562 leukemia) | TGI (HOP-92 NSCLC) | TGI (PC-3 prostate) | TGI (HOP-62 NSCLC) | TGI (HS 578T breast) | TGI (T-47D breast) | TGI (UACC-257 melanoma) | TGI (SF-295 CNS) | TGI (OVCAR-5 ovarian) | GI50 (OVCAR-8 ovarian) | GI50 (K-562 leukemia) | GI50 (HOP-92 NSCLC) | GI50 (PC-3 prostate) | GI50 (HOP-62 NSCLC) | GI50 (HS 578T breast) | GI50 (T-47D breast) | GI50 (UACC-257 melanoma) | GI50 (SF-295 CNS) | GI50 (OVCAR-5 ovarian)
BrC(Br)=C1C(=C(Br)Br)C(Br)C1Br (centres undefined) | 5.46 µM | 1.19 µM | 2.96 µM | 5.42 µM | 2.88 µM | 23.3 µM | > 100 µM | 5.3 µM | 2.32 µM | 3.27 µM |  |  |  |  |  |  |  |  |  | 
C=C1CC2(CC(c3ccccc3Cl)OC(c3ccccc3Cl)C2)OC1=O (centres undefined) | 4.71 µM | > 25.3 µM | 4.65 µM | 6.84 µM | 21.1 µM | 4.71 µM | 3.22 µM | 5.14 µM | 19.2 µM | 16.5 µM |  |  |  |  |  |  |  |  |  | 
COc1cc(C2CC(c3cccc(Nc4ccnc5cc(Cl)ccc45)c3)=NN2c2ccc(Cl)cc2)cc(OC)c1OC (centres undefined) | > 100 µM | > 100 µM | 74.8 µM | > 100 µM | 22.7 µM | 86.8 µM | > 100 µM | > 100 µM | 33.8 µM | > 100 µM | 5.36 µM | 0.755 µM | 1.85 µM | 0.819 µM | 1.39 µM | 2.45 µM | 0.687 µM | 3.45 µM | 1.71 µM | 13.2 µM
COC1C(O)CC(OC2CC(OC3CC(O[C@@H]4C(=O)c5c(cc6cc(OC7CC(OC8CC(O)C(O)C(C)O8)C(O)C(C)O7)c(C)c(O)c6c5O)CC4[C@H](OC)C(=O)O)OC(C)C3O)OC(C)C2O)OC1C (some centres undefined) | > 33.3 µM | > 33.3 µM | > 33.3 µM | > 33.3 µM | > 33.3 µM | > 33.3 µM | 32.1 µM | 13.5 µM | > 33.3 µM | > 33.3 µM | 2.27 µM | 1.96 µM | 4.4 µM | 2.4 µM | 1.63 µM | 1.93 µM | 1.33 µM | 1.94 µM | 0.97 µM | 4.04 µM
C=C(CN1CCN(c2ccc(C(F)(F)F)cc2)CC1)c1ccc(C(=O)Nc2ccccc2N)cc1 | > 100 µM | > 36.5 µM | 23.7 µM | > 65.7 µM | > 45 µM | > 100 µM | > 100 µM | > 100 µM | > 100 µM | > 100 µM | 6.95 µM | 0.302 µM | 3.95 µM | 1.29 µM | 8.38 µM | 22.6 µM | 21.8 µM | 2.39 µM | 10.8 µM | > 100 µM
Cc1c(-c2ccc(C3CCCCC3)cc2)nc2ccc(F)cc2c1C(=O)O | > 100 µM | > 100 µM | 97.5 µM | > 100 µM | > 100 µM | > 100 µM | > 100 µM | > 100 µM | > 100 µM | > 100 µM | 0.123 µM | 0.0574 µM | 15 µM | 0.0797 µM |  | 34.8 µM | 9.65 µM | 4.79 µM | 0.0881 µM | > 100 µM
Cc1c2ccn(O)cc2c(C)c2c1nc1ccccc12 | 64.4 µM | > 81.4 µM | 38.5 µM | 30.2 µM | 27.5 µM | 8.44 µM | 8.93 µM | > 100 µM | 23.4 µM | 53.5 µM |  |  |  |  |  |  |  |  |  | 
